This note sets out measurements from publication PMC12040169 (PLOS Biology, 2025).

The structures appear in SMILES notation.

The data set is described as follows: in vitro. The note with it: human, hela cells, % viability.

A word on the viability: it is a read-out of living cells in per cent, often relative to untreated cells.

Take `Cc1sc2nc(SCc3nc4ccccc4[nH]3)n(-c3ccc(Cl)c(Cl)c3)c(=O)c2c1C` [CBK264594]: the viability at 28.5 h, 10 µM worked out at 102%. In the case of `CCOc1ccc(/C=C2/NC(=O)NC2=O)cc1Br` [CBK098031], the viability at 28.5 h, 10 µM amounted to 91.6%. For `Cc1cccc(C(=O)NCc2nnc(SCC(=O)N3CCOCC3)n2C)c1` [CBK269723], the viability at 28.5 h, 10 µM is 95.3%. As for `COC(=O)c1cc(S(=O)(=O)NC2CCCc3ccccc32)cn1C` (stereo not shown) [CBK304616], the viability at 28.5 h, 10 µM turned out to be 98.4%. Still for that read-out and setting: with `Cc1ccc(COCSc2nc3ccccc3n2CC(O)CO)cc1C` (stereo not shown) [CBK021195] the figure was 85.1%; with `COc1ccc(F)c(CNCCNC(=O)OC(C)(C)C)c1` [CBK056699], 93.9%. In the case of `Cn1c(SCC(=O)N2CCN(c3ccccc3)CC2)nnc1-c1cccc([N+](=O)[O-])c1` [CBK265209], the viability at 28.5 h, 10 µM amounted to 105%. For the compound `O=C(CCn1ccc2ccncc21)NCCc1c[nH]c2ccccc12` [CBK284760], the viability at 28.5 h, 10 µM was found to be 99%.

Turning to `c1cnc2c(OCc3nc4ccccc4[nH]3)cccc2c1` [CBK268556], the viability at 28.5 h, 10 µM worked out at 74.6%. Take `CCNc1nc(NCc2ccccc2)nc(Oc2ccc(=O)[nH]n2)n1` [CBK266591]: the viability at 28.5 h, 10 µM stood at 104%. With `COCCNC(=O)c1cnn2c(C)c(Cc3ccccc3C(F)(F)F)c(C)nc12` [CBK165210], the viability at 28.5 h, 10 µM turned out to be 95.7%.

`COc1ccc(C(=O)NNS(=O)(=O)N(C)C)cc1OC` [CBK267697]: the viability at 28.5 h, 10 µM is 99.1%. Take `N/C(Cc1ccc(Cl)cc1Cl)=N\OC(=O)c1cccc([N+](=O)[O-])c1` [CBK264317]: the viability at 28.5 h, 10 µM was 91%. On the same count and under the same terms, with `CCOC(=O)C1(C2CCCCC2)CCN(C(=O)c2cccc(C(F)(F)F)c2)CC1` [CBK136920] the figure was 91.7%; with `Cc1cc(C)c(NC(N)=O)c(C)c1` [CBK086399], 105%; with `Cc1ccc(-c2nccnc2OCCOc2ccccc2)c(C)c1` [CBK106991], 86.1%.

In the case of `CCC1CCCCN1C(=O)c1nc2ccccc2s1` (stereo not shown) [CBK076645], the viability at 28.5 h, 10 µM was 101%. On the same count and under the same terms, with `O=C(NCCn1cccn1)c1ncoc1-c1ccc(F)cc1` [CBK282355] the figure was 91.5%; with `O=C(O)c1cccc(-n2nnnc2SCc2ccccn2)c1` [CBK266744], 115%; with `O=C1c2ccccc2C(=O)N1CSc1nnc2c3ccccc3n(CCc3ccccc3)c2n1` [CBK263891], 97.7%. As to `COc1ccc(/C=C(/NC(=O)c2cccc([N+](=O)[O-])c2)C(=O)O)cc1OC` [CBK263362], the viability at 28.5 h, 10 µM stood at 97.1%. Regarding `CCC(C)(C)c1ccc(S(=O)(=O)N2CCN(CCCC#N)CC2)cc1` [CBK063134], the viability at 28.5 h, 10 µM stood at 93.4%.

On to `O=C1/C(=N\O)c2ccccc2N1Cc1ccccc1` [CBK288484], for which the viability at 28.5 h, 10 µM was determined as 99.7%.

As for `O=S(=O)(c1ccc(C(F)(F)F)cc1Cl)N1CCCN(Cc2ccc3cccc(O)c3n2)CC1` [CBK063036], the viability at 28.5 h, 10 µM amounted to 101%.

`CCCc1cnc(N2CCN(S(=O)(=O)c3ccc(NC(C)=O)cc3Cl)CC2)nc1` [CBK086208]: the viability at 28.5 h, 10 µM amounted to 117%. The same measure, in the same setting: the value for `Cc1ccc(C2(O)CCN(Cc3c(C)nc4cc(C)ccn34)CC2)cc1` [CBK282733] was 80.5%; that for `CC(=O)c1cn(CCC(=O)NC2CCCN(C)C2)c2ccccc12` (stereo not shown) [CBK282503] was 81.3%. Still for that read-out and setting: with `O=C(O)CCNS(=O)(=O)c1ccc2ccccc2c1` [CBK286920] the figure was 98.6%.

Consider `COC(=O)c1c(NC(=O)C(C)Oc2cc(C)c(Cl)c(C)c2)sc(C(C)=O)c1C` (stereo not shown) [CBK265678], for which the viability at 28.5 h, 10 µM turned out to be 94.1%. Same read-out and setting: the value for `Cc1ccc(NC(=O)C2CC=CCC2C(=O)O)cc1NC(=O)c1ccc(Cl)cc1` (stereo not shown) [CBK268980] was 92.6%; that for `Cc1cccn2cc(-c3ccc4c(c3)CCN4S(C)(=O)=O)cc12` [CBK285226] was 95.5%; that for `c1ccc2oc(-c3cc4ccccc4o3)cc2c1` [CBK113363] was 113%. The same measure, in the same setting: the value for `COc1ccccc1-c1ccc(NC(=O)CCn2cnc3ccccc3c2=O)cc1` [CBK285711] was 95.2%; that for `COc1ccc(OC(C)C(=O)Nc2ccccc2-c2ccccc2)cc1` (stereo not shown) [CBK266661] was 94.2%; that for `COc1ccc(C2(C(=O)NCc3ccncc3)CCOCC2)cc1` [CBK287991] was 103%. As to `O=C(O)CC(C(=O)O)c1ccc(Cl)cc1Cl` (stereo not shown) [CBK268523], the viability at 28.5 h, 10 µM worked out at 95.5%. Still for that read-out and setting: the value for `OCC1CCC(O)C(CO)N1` (stereo not shown) [CBK022827C] was 86.5%; that for `Cc1ccc(S(=O)(=O)CC(=O)Nc2nc3ccc(C)cc3s2)cc1` [CBK287705] was 89.8%; that for `COc1ccc(N(C(C)C(=O)N/N=C2\C(=O)Nc3ccccc32)S(C)(=O)=O)cc1` (stereo not shown) [CBK262408] was 98.5%. Take `Cc1cc(C)c(S(=O)(=O)N(CC(=O)O)C2CCCCC2)c(C)c1` [CBK266663]: the viability at 28.5 h, 10 µM turned out to be 92.6%.

Turning to `Cc1cc(NS(=O)(=O)c2cccc([N+](=O)[O-])c2)n(C)n1` [CBK067243], the viability at 28.5 h, 10 µM was 99.2%. As to `Fc1cccc(-c2nc3cnccn3c2NC2CCCC2)c1` [CBK283780], the viability at 28.5 h, 10 µM stood at 81.4%.

On to `O=C(C1CCCC1)N1CCc2nc(-c3ccccc3)[nH]c(=O)c2C1` [CBK282331], for which the viability at 28.5 h, 10 µM worked out at 99%. Turning to `O=S(=O)(c1ccc(F)c(Cl)c1)n1ccc2c(N3CCNCC3)nccc21` [CBK059059C], the viability at 28.5 h, 10 µM was 90.7%.

As for `CC(=O)Nc1ccc(N2CCN(CCO)CC2)cc1OCCCOc1ccccc1` [CBK074317T], the viability at 28.5 h, 10 µM came out at 110%.

Take `Cc1ccc(-c2noc(CSc3nnc(-c4ccncc4)n3-c3ccc(C)cc3)n2)cc1` [CBK268879]: the viability at 28.5 h, 10 µM stood at 101%. For `COc1ccc(N2C(=O)NC(=O)/C(=C\c3ccc(O)c(O)c3)C2=O)cc1` [CBK261436], the viability at 28.5 h, 10 µM (bulk resorufin, single well) was 92%. Regarding `O=C(Nc1ccccc1N1CCN(C(=O)c2ccc(Cl)cc2)CC1)c1ccc(-c2cc3ccccc3oc2=O)cc1` [CBK267280], the viability at 28.5 h, 10 µM worked out at 92.3%. The same measure, in the same setting: the value for `CS(=O)(=O)NC1CCCN(c2ncnc3ccccc23)C1` (stereo not shown) [CBK305619] was 111%; that for `CC(=O)NC(c1ccccn1)C1CCCN(C(=O)C2CC2)C1` (stereo not shown) [CBK285040] was 100%.

With `O=C(NCCSCc1ccco1)Nc1ccc(Cl)cc1` [CBK267869], the viability at 28.5 h, 10 µM stood at 97.3%. Turning to `O=C(NCCc1ccsc1)N1CCN(c2ccncc2)CC1` [CBK305595], the viability at 28.5 h, 10 µM was 102%. On to `O=C(C1CCN(S(=O)(=O)c2cccs2)CC1)N1CCC(C(=O)O)(c2ccccc2)CC1` [CBK297147], for which, under “bulk resorufin, single well”, the viability at 28.5 h, 10 µM came out at 88%. Consider `O=C(c1cc2c(F)cccc2[nH]1)N1CCCCC1CCN1CCCC1` (stereo not shown) [CBK281612], for which the viability at 28.5 h, 10 µM was 85.7%. For the compound `COc1ccc(C)cc1S(=O)(=O)N1CCc2c(CN3CCOCC3)cccc21` [CBK113630T], the viability at 28.5 h, 10 µM was found to be 86.8%.

For the compound `Cc1ncsc1CCS(=O)(=O)N1CCOCC1c1cccc(F)c1` (stereo not shown) [CBK304254], the viability at 28.5 h, 10 µM was 91%.

For `c1ccc2c(c1)OCC(COc1cncc(N3CCNCC3)n1)O2` (stereo not shown) [CBK172357G], the viability at 28.5 h, 10 µM is 101%. For `CCOC(=O)c1ccc(COc2cccc(-c3cnc4ccccc4n3)c2)cc1` [CBK266395], the viability at 28.5 h, 10 µM was 94.2%.

As for `COc1ccc(Cl)cc1NC(=O)NC(=O)C1CCN(CCOc2cccc3ccccc23)CC1` [CBK035116], the viability at 28.5 h, 10 µM was 90.9%.

For the compound `O=C(c1cc(F)cc(F)c1)N1CCC(c2n[nH]c3ncccc23)CC1` [CBK284909], the viability at 28.5 h, 10 µM came out at 87.9%. Turning to `Cc1cc(Cl)c(S(=O)(=O)Nc2cccc(Br)c2)cc1OCC(N)=O` [CBK266535], the viability at 28.5 h, 10 µM was found to be 100%.

Regarding `COc1nccnc1N1CCN(Cc2ccc(Cl)c(Cl)c2)CC1` [CBK084209], the viability at 28.5 h, 10 µM came out at 92.1%.

As for `Cn1cc(C(=O)OCc2cccc(S(=O)(=O)N3CCOCC3)c2)cn1` [CBK305721], the viability at 28.5 h, 10 µM was 88.1%. Take `O=C(NCc1csc2c1CCCC2)N1CCC(CO)CC1` [CBK307476]: the viability at 28.5 h, 10 µM was determined as 98.9%. For the compound `O=C(CC1(O)C(=O)N(Cc2ccc3c(c2)OCO3)c2ccccc21)c1ccccn1` (stereo not shown) [CBK269725], the viability at 28.5 h, 10 µM stood at 94.2%. On to `O=C1CC2(CCN(C(=O)c3ccc4cc[nH]c4c3)CC2)Oc2ccc(CN3CCOCC3)cc21` [CBK169469], for which the viability at 28.5 h, 10 µM was determined as 121%.

As for `CCn1c(SCC(=O)Nc2cccc([N+](=O)[O-])c2)nnc1-c1cc(Br)ccc1O` [CBK267980], the viability at 28.5 h, 10 µM amounted to 86%. With `CCOC(=O)COc1ccc2nsnc2c1Cl` [CBK025603], the viability at 28.5 h, 10 µM is 91.4%. For the compound `CCOC(=O)N1CCC(NS(=O)(=O)c2cc(C(=O)OC)n(C)c2)CC1` [CBK304688], the viability at 28.5 h, 10 µM was 92.3%. On to `C=CCn1c2cc(C)oc2c2cnn(CC(=O)N(C)C)c(=O)c21` [CBK283326], for which the viability at 28.5 h, 10 µM amounted to 101%. The same measure, in the same setting: the value for `O=C(O)C(c1c[nH]c2ccccc12)N1CCc2ccccc2C1` (stereo not shown) [CBK286664] was 84.5%; that for `CS(=O)(=O)Nc1ccc(C(=O)Nc2ccc(S(=O)(=O)N3CCCCCC3)cc2)cc1` [CBK268288] was 107%.

For the compound `Cc1ccc(S(=O)(=O)NCC(=O)Nc2ccc(Cl)nc2)cc1` [CBK091355], the viability at 28.5 h, 10 µM was 96.1%.

On to `CCCCNC(=O)c1ccc2nc(C)c(N(C)CC3CCCCC3)n2c1` [CBK145913], for which the viability at 28.5 h, 10 µM turned out to be 99.6%. Still for that read-out and setting: with `C=CCN1C(=O)CC2(C1=O)C(=O)N(Cc1nnc(-c3ccc(C)cc3)o1)c1ccc(Cl)cc12` (stereo not shown) [CBK075434] the figure was 104%; with `N#Cc1cccc(CN2CCCC3(CCN(C(=O)Cc4c[nH]c5ccccc45)C3)C2)c1` (stereo not shown) [CBK132032], 103%; with `CCN(CC)CCNC(=O)c1ccc(Nc2cncc(-c3ccc(O)cc3)n2)c(OC)c1` [CBK122659], 82.2%.

For the compound `COc1ccc(-c2nnc(SCc3csc(Nc4ccccc4)n3)n2-c2ccccc2)cc1` [CBK265205], the viability at 28.5 h, 10 µM was 89.1%.

On to `O=c1[nH]c2ncc(-c3ccsc3)nc2n1Cc1ccccc1` [CBK064227], for which the viability at 28.5 h, 10 µM worked out at 96.7%.
